Laboratory results reported in ChEMBL document CHEMBL5316329, “Structure-Based Optimization of 2,4,5-Trisubstituted Pyrimidines as Potent HIV-1 Non-Nucleoside Reverse Transcriptase Inhibitors: Exploiting the Tolerant Regions of the Non-Nucleoside Reverse Transcriptase Inhibitors' Binding Pocket” (J Med Chem, 2023).

Assays:
[1] = tested on: Human immunodeficiency virus 1; test: Antiviral activity against NNRTI-resistant HIV-1 RES056 infected in human MT4 cells assessed as virus-induced cytopathicity treated for 5 days by MTT assay; type: functional, organism-based; details: Human immunodeficiency virus 1, RES056, MT4, 120 h
[2] = Cytotoxicity against human MT4 cells assessed as reduction in cell viability treated for 5 days by MTT assay; type: toxicity, cell-based; details: time 5 day
[3] = tested on: Human immunodeficiency virus 1; test: Antiviral activity against HIV-1 harboring L100I mutant infected in human MT4 cells assessed as virus-induced cytopathicity treated for 5 days by MTT assay; type: functional, organism-based; details: Human immunodeficiency virus 1, MT4, 120 h
[4] = tested on: Human immunodeficiency virus 1; test: Antiviral activity against HIV-1 harboring Y181C mutant infected in human MT4 cells assessed as virus-induced cytopathicity treated for 5 days by MTT assay; type: functional, organism-based; details: Human immunodeficiency virus 1, MT4, 120 h
[5] = tested on: Human immunodeficiency virus 1; test: Antiviral activity against wild-type HIV-1 IIIB infected in human MT4 cells assessed as virus-induced cytopathicity treated for 5 days by MTT assay; type: functional, organism-based; details: Human immunodeficiency virus 1, IIIB, MT4, 120 h
[6] = Selectivity index, ratio of CC50 for human MT4 cells to EC50 for wild-type HIV-1 IIIB infected in human MT4 cells; type: toxicity, cell-based; details: read-out: Selectivity Index
[7] = Selectivity index, ratio of CC50 for human MT4 cells to EC50 for NNRTI-resistant HIV-1 RES056 infected in human MT4 cells; type: toxicity, cell-based; details: read-out: Selectivity Index
[8] = biological target: Human immunodeficiency virus type 1 reverse transcriptase (Human immunodeficiency virus 1, UniProt Q72547); test: Inhibition of wild-type HIV-1 reverse transcriptase assessed as inhibition of biotin-dUTP incorporation
[9] = tested on: Human immunodeficiency virus 1; test: Antiviral activity against HIV-1 harboring K103N mutant infected in human MT4 cells assessed as virus-induced cytopathicity treated for 5 days by MTT assay; type: functional, organism-based; details: Human immunodeficiency virus 1, MT4, 120 h; read-out: EC50
[10] = tested on: Human immunodeficiency virus 1; test: Antiviral activity against HIV-1 harboring Y188L mutant infected in human MT4 cells assessed as virus-induced cytopathicity treated for 5 days by MTT assay; type: functional, organism-based; details: Human immunodeficiency virus 1, MT4, 120 h; read-out: EC50
[11] = tested on: Human immunodeficiency virus 1; test: Antiviral activity against HIV-1 E138K mutant infected in human MT4 cells assessed as virus-induced cytopathicity treated for 5 days by MTT assay; type: functional, organism-based; details: Human immunodeficiency virus 1, MT4, 120 h; read-out: EC50
[12] = tested on: Human immunodeficiency virus 1; test: Antiviral activity against HIV-1 F227L/V106A mutant infected in human MT4 cells assessed as virus-induced cytopathicity treated for 5 days by MTT assay; type: functional, organism-based; details: Human immunodeficiency virus 1, MT4, 120 h; read-out: EC50

SMILES | EC50 [1] | CC50 at 120 h [2] | EC50 ([3]; read-out: EC50) | EC50 ([3]; read-out: pEC50 (converted)) | EC50 ([4]; read-out: EC50) | EC50 ([4]; read-out: pEC50 (converted)) | EC50 [5] | selectivity ratio [6] | selectivity ratio [7] | IC50 [8] | EC50 [9] | EC50 [10] | EC50 [11] | EC50 [12]
Cc1cc(C#N)cc(C)c1Oc1nc(Nc2ccc(C#N)cc2)nc(N)c1Br [ETRAVIRINE] | 52.2 nM | > 4.59 µM | 11.7 nM | 11.7 nM | 16.6 nM | 17 nM | – | – | – | – | – | – | – | –
Cc1cc(/C=C/C#N)cc(C)c1Oc1nc(NC2CCN(Cc3ccc(C(N)=O)cc3)CC2)ncc1-c1ccc(O)cc1 | 150 nM | 21.3 µM | – | – | – | – | 5.66 nM | 3760 | 142 | 171 nM | – | – | – | –
Cc1cc(/C=C/C#N)cc(C)c1Oc1nc(NC2CCN(Cc3ccc(S(N)(=O)=O)cc3)CC2)ncc1-c1ccc(O)cc1 | 26.1 nM | 4.44 µM | 3.68 nM | – | 7.77 nM | – | 3.83 nM | 1160 | 170 | 91 nM | 4.13 nM | 31.3 nM | 7.65 nM | 12.7 nM
Cc1cc(/C=C/C#N)cc(C)c1Cc1nc(NC2CCN(Cc3ccc(C(N)=O)cc3)CC2)ncc1-c1cnc(N)nc1 | 68.6 nM | 3.07 µM | – | – | – | – | 6.82 nM | 451 | 45 | 157 nM | – | – | – | –
Cc1cc(/C=C/C#N)cc(C)c1Oc1nc(NC2CCN(Cc3ccc(S(C)(=O)=O)cc3)CC2)ncc1-c1ccccc1O | 376 nM | 6.73 µM | – | – | – | – | 9.04 nM | 745 | 18 | 328 nM | – | – | – | –
Cc1cc(/C=C/C#N)cc(C)c1Cc1nc(NC2CCN(Cc3ccc(S(N)(=O)=O)cc3)CC2)ncc1-c1cncnc1 | 37.8 nM | 11.3 µM | 4.52 nM | – | 8.21 nM | – | 5.4 nM | 2090 | 299 | 117 nM | 5.02 nM | 41.9 nM | 13.4 nM | 15.3 nM
Cc1cc(/C=C/C#N)cc(C)c1Oc1nc(NC2CCN(Cc3ccc(S(C)(=O)=O)cc3)CC2)ncc1-c1cccc(N)c1 | 52.8 nM | 4.12 µM | – | – | – | – | 6.05 nM | 682 | 78 | 136 nM | – | – | – | –
Cc1cc(/C=C/C#N)cc(C)c1Oc1nc(NC2CCN(Cc3ccc(C(N)=O)cc3)CC2)ncc1-c1ccccc1F | 192 nM | 10.5 µM | – | – | – | – | 7.4 nM | 1420 | 55 | 154 nM | – | – | – | –
Cc1cc(/C=C/C#N)cc(C)c1Oc1nc(NC2CCN(Cc3ccc(S(N)(=O)=O)cc3)CC2)ncc1-c1ccc(F)cc1 | 67.8 nM | 9.63 µM | – | – | – | – | 4.98 nM | 1930 | 142 | 137 nM | – | – | – | –
Cc1cc(/C=C/C#N)cc(C)c1Oc1nc(NC2CCN(Cc3ccc(C(N)=O)cc3)CC2)ncc1-c1ccccc1O | 123 nM | 11.2 µM | – | – | – | – | 5.99 nM | 1870 | 91 | 178 nM | – | – | – | –
Cc1cc(/C=C/C#N)cc(C)c1Oc1nc(NC2CCN(Cc3ccc(S(N)(=O)=O)cc3)CC2)ncc1-c1ccccc1F | 101 nM | 10.9 µM | – | – | – | – | 3.96 nM | 2760 | 107 | 130 nM | – | – | – | –
CC(=O)c1ccc(-c2cnc(NC3CCN(Cc4ccc(S(C)(=O)=O)cc4)CC3)nc2Oc2c(C)cc(/C=C/C#N)cc2C)cc1 | 93.4 nM | 8.46 µM | – | – | – | – | 5.48 nM | 1540 | 91 | 199 nM | – | – | – | –
Cc1cc(/C=C/C#N)cc(C)c1Cc1nc(NC2CCN(Cc3ccc(S(N)(=O)=O)cc3)CC2)ncc1-c1cnc(N)nc1 | 32.3 nM | 2.74 µM | – | – | – | – | 4.44 nM | 617 | 85 | 85 nM | – | – | – | –
Cc1cc(/C=C/C#N)cc(C)c1Oc1nc(NC2CCN(Cc3ccc(C(N)=O)cc3)CC2)ncc1-c1ccc(F)cc1 | 53.5 nM | 8.23 µM | – | – | – | – | 5.15 nM | 1600 | 154 | 130 nM | – | – | – | –
Cc1cc(/C=C/C#N)cc(C)c1Oc1nc(NC2CCN(Cc3ccc(S(C)(=O)=O)cc3)CC2)ncc1-c1ccc(N)cc1 | 34.1 nM | 6.74 µM | 4.68 nM | – | 8.09 nM | – | 4.46 nM | 1510 | 198 | 159 nM | 4.92 nM | 33.2 nM | 7.47 nM | 7.8 nM
